Laboratory results reported in ChEMBL document CHEMBL1201862, “PubChem BioAssay data set” (2004).
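Interpolation was linear, between the two tested concentrations surrounding the appropriate level; five concentrations were tested over 48 hours in 96-well plates. At the GI50, growth is halved.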 The source made the active and inactive calls. No stated cut-off is given here; in the data, active = GI50 up to about 1.1 µM and inactive = higher.

Experiments:
Assay in all cases: growth of human tumour cells (NCI), 48 h
Malme-3M = tested on: Malme-3M
EKVX = tested on: EKVX
Hs-578T = tested on: Hs-578T
CAKI-1 = tested on: CAKI-1
NCI/ADR-RES = tested on: NCI/ADR-RES
NCI-H522 = tested on: NCI-H522
HT-29 = tested on: HT-29
BT-549 = tested on: BT-549
IGROV-1 = tested on: IGROV-1
LOX IMVI = tested on: LOX IMVI
DU-145 = tested on: DU-145
SNB-19 = tested on: SNB-19
SNB-75 = tested on: SNB-75
MDA-N = tested on: MDA-N
MCF7 = tested on: MCF7
T47D = tested on: T47D
PC-3 = tested on: PC-3
MDA-MB-231 = tested on: MDA-MB-231
MDA-MB-435 = tested on: MDA-MB-435

CNNC(=NS(=O)(=O)c1cc(C#N)c(NNC)cc1S)NNC
GI50 (Malme-3M): > 10 µM (inactive)
GI50 (EKVX): > 10 µM (inactive)
GI50 (Hs-578T): > 10 µM (inactive)
GI50 (CAKI-1): > 10 µM (inactive)
GI50 (NCI/ADR-RES): > 10 µM (inactive)
GI50 (NCI-H522): > 10 µM (inactive)
GI50 (HT-29): > 10 µM (inactive)
GI50 (BT-549): > 10 µM (inactive)
GI50 (IGROV-1): > 10 µM (inactive)
GI50 (LOX IMVI): > 10 µM (inactive)
GI50 (DU-145): > 10 µM (inactive)
GI50 (SNB-19): > 10 µM (inactive)
GI50 (SNB-75): > 10 µM (inactive)
GI50 (MDA-N): > 10 µM (inactive)
GI50 (MCF7): > 10 µM (inactive)
GI50 (T47D): > 10 µM (inactive)
GI50 (PC-3): > 10 µM (inactive)

COC(=O)C1CCC(=O)N1C(c1ccc2c(c1)OCO2)c1cc(OC)c(OC)c(OC)c1 (stereo unspecified)
GI50 (Malme-3M): > 100 µM (inactive)
GI50 (EKVX): > 100 µM (inactive)
GI50 (Hs-578T): > 100 µM (inactive)
GI50 (MDA-MB-231): > 100 µM (inactive)
GI50 (CAKI-1): > 100 µM (inactive)
GI50 (NCI-H522): 6.35 µM (inactive)
GI50 (HT-29): > 100 µM (inactive)
GI50 (BT-549): > 100 µM (inactive)
GI50 (IGROV-1): > 100 µM (inactive)
GI50 (LOX IMVI): > 100 µM (inactive)
GI50 (DU-145): > 100 µM (inactive)
GI50 (SNB-19): > 100 µM (inactive)
GI50 (SNB-75): > 100 µM (inactive)
GI50 (MDA-MB-435): > 100 µM (inactive)
GI50 (MDA-N): > 100 µM (inactive)
GI50 (MCF7): > 100 µM (inactive)
GI50 (PC-3): > 100 µM (inactive)

COc1cccc(-c2[nH]c3cc4c(cc3c(=O)c2C(=O)O)OCO4)c1
GI50 (EKVX): 79.1 µM (inactive)
GI50 (MDA-MB-231): 57.5 µM (inactive)
GI50 (CAKI-1): 72.8 µM (inactive)
GI50 (NCI/ADR-RES): 17.8 µM (inactive)
GI50 (HT-29): 34.2 µM (inactive)
GI50 (BT-549): 51.3 µM (inactive)
GI50 (IGROV-1): 37.8 µM (inactive)
GI50 (LOX IMVI): 42.3 µM (inactive)
GI50 (DU-145): 38.7 µM (inactive)
GI50 (SNB-19): 43.4 µM (inactive)
GI50 (SNB-75): 84.1 µM (inactive)
GI50 (MDA-MB-435): 8.39 µM (inactive)
GI50 (MDA-N): 9.84 µM (inactive)
GI50 (MCF7): 41 µM (inactive)
GI50 (T47D): > 100 µM (inactive)
GI50 (PC-3): 57.5 µM (inactive)

C[C@]12CC[C@H](O[C@@H]3O[C@H](CO[C@@H]4O[C@H](CO)[C@@H](O)[C@H](O)[C@H]4O)[C@@H](O)[C@H](O)[C@H]3O)C[C@@H]1CC[C@@H]1[C@@H]2CC[C@]2(C)[C@@H](C3=CC(=O)OC3)CC[C@]12O [UZARIN]
GI50 (Malme-3M): 17.5 µM (inactive)
GI50 (EKVX): 17.7 µM (inactive)
GI50 (Hs-578T): 19.5 µM (inactive)
GI50 (MDA-MB-231): > 80.2 µM (inactive)
GI50 (CAKI-1): 13.7 µM (inactive)
GI50 (NCI/ADR-RES): 15.4 µM (inactive)
GI50 (NCI-H522): 7.91 µM (inactive)
GI50 (HT-29): 35.8 µM (inactive)
GI50 (BT-549): 6.71 µM (inactive)
GI50 (IGROV-1): 10.7 µM (inactive)
GI50 (LOX IMVI): 22.1 µM (inactive)
GI50 (DU-145): 13.3 µM (inactive)
GI50 (SNB-19): 38.9 µM (inactive)
GI50 (SNB-75): 28.4 µM (inactive)
GI50 (MDA-MB-435): 31.8 µM (inactive)
GI50 (MDA-N): 29 µM (inactive)
GI50 (T47D): 31.1 µM (inactive)
GI50 (PC-3): 28.2 µM (inactive)

O=C(c1cccs1)N(C(=S)N1CCN(c2ccccc2)CC1)c1ccccc1
GI50 (Malme-3M): > 100 µM (inactive)
GI50 (CAKI-1): > 100 µM (inactive)
GI50 (NCI-H522): > 100 µM (inactive)
GI50 (HT-29): > 100 µM (inactive)
GI50 (IGROV-1): > 100 µM (inactive)
GI50 (LOX IMVI): > 100 µM (inactive)
GI50 (SNB-19): > 100 µM (inactive)
GI50 (SNB-75): > 100 µM (inactive)

CCN(CC)c1ccc2cc(C(=O)Nc3nc(C45CC6CC(CC(C6)C4)C5)cs3)c(=O)oc2c1
GI50 (Malme-3M): > 100 µM (inactive)
GI50 (EKVX): > 100 µM (inactive)
GI50 (Hs-578T): > 100 µM (inactive)
GI50 (MDA-MB-231): > 100 µM (inactive)
GI50 (CAKI-1): > 100 µM (inactive)
GI50 (NCI/ADR-RES): > 100 µM (inactive)
GI50 (NCI-H522): > 100 µM (inactive)
GI50 (HT-29): > 100 µM (inactive)
GI50 (BT-549): > 100 µM (inactive)
GI50 (IGROV-1): > 100 µM (inactive)
GI50 (LOX IMVI): > 100 µM (inactive)
GI50 (DU-145): > 100 µM (inactive)
GI50 (SNB-19): > 100 µM (inactive)
GI50 (MDA-MB-435): > 100 µM (inactive)
GI50 (MDA-N): > 100 µM (inactive)
GI50 (MCF7): > 100 µM (inactive)
GI50 (PC-3): > 100 µM (inactive)

O=c1cc(NNc2ccccc2)[nH]c(=O)[nH]1
GI50 (Malme-3M): 19.8 µM (inactive)
GI50 (EKVX): > 100 µM (inactive)
GI50 (Hs-578T): 80.7 µM (inactive)
GI50 (MDA-MB-231): 15.8 µM (inactive)
GI50 (NCI/ADR-RES): 22.8 µM (inactive)
GI50 (NCI-H522): 20.5 µM (inactive)
GI50 (HT-29): 22.1 µM (inactive)
GI50 (IGROV-1): 34.9 µM (inactive)
GI50 (LOX IMVI): 19.8 µM (inactive)
GI50 (DU-145): > 100 µM (inactive)
GI50 (SNB-19): 21.1 µM (inactive)
GI50 (MDA-MB-435): 19 µM (inactive)
GI50 (MDA-N): 20.2 µM (inactive)
GI50 (MCF7): 12.9 µM (inactive)
GI50 (T47D): > 10 µM (inactive)
GI50 (PC-3): 21.9 µM (inactive)

CC(NC(=O)c1ccc(OP(=O)(OCC2=CC(=O)c3ccccc3C2=O)N(C)CCCCCl)cc1)c1ccc(OCC2CCCCC2)c(C(N)=O)c1 (stereo unspecified)
GI50 (Malme-3M): 1.88 µM (inactive)
GI50 (Hs-578T): 2.52 µM (inactive)
GI50 (MDA-MB-231): 8.99 µM (inactive)
GI50 (CAKI-1): 9.44 µM (inactive)
GI50 (NCI/ADR-RES): 14.8 µM (inactive)
GI50 (NCI-H522): 11.8 µM (inactive)
GI50 (HT-29): 15.1 µM (inactive)
GI50 (IGROV-1): 9.66 µM (inactive)
GI50 (LOX IMVI): 4.27 µM (inactive)
GI50 (DU-145): 3.5 µM (inactive)
GI50 (SNB-19): 14.4 µM (inactive)
GI50 (SNB-75): 0.0122 µM (active)
GI50 (MDA-MB-435): 2.47 µM (inactive)
GI50 (MDA-N): 2.72 µM (inactive)
GI50 (MCF7): 11.4 µM (inactive)
GI50 (T47D): 0.0891 µM (active)
GI50 (PC-3): 14.2 µM (inactive)
